# According to ChEMBL document CHEMBL5625165, “Nine-valent oleanolic acid conjugates as potent inhibitors blocking the entry of influenza A virus” (Eur J Med Chem, 2023):
# Activity calls are given as the source filed them. The rule behind the calls is not given here.
# Tests used:
# [1] = Cytotoxicity against dog MDCK cells assessed as cell viability at 30 uM incubated for 48 hrs by celltiter-glo assay; format: toxicity, cell-based, Canis lupus familiaris; details: read-out: Activity
# [2] = tested on: Influenza A virus; test: Antiviral activity against influenza A virus A/WSN/33(H1N1) infected in MDCK cells assessed as inhibition of viral growth at 30 uM incubated for 48 hrs by microscopic analysis; format: functional; set-up: scale not given: the % may be the effect or the level left
# [3] = tested on: Influenza A virus; test: Antiviral activity against influenza A virus A/WSN/33(H1N1) infected in MDCK cells assessed as inhibition of viral-induced cytopathic effect incubated for 48 hrs by microscopic analysis; format: functional, organism-based
# [4] = Cytotoxicity against dog MDCK cells assessed as reduction in cell viability incubated for 48 hrs by celltiter-glo assay; format: toxicity, cell-based, Canis lupus familiaris
# [5] = Selectivity index, ratio of CC50 for cytotoxicity against dog MDCK cells assessed as reduction in cell viability to IC50 for antiviral activity against influenza A virus A/WSN/33(H1N1) infected in MDCK cells assessed as inhibition of viral-induced cytopathic effect; format: toxicity, cell-based; details: read-out: Ratio CC50/IC50
# [6] = tested on: Erythrocyte; test: Hemolytic activity in rabbit RBC assessed as hemolysis at 300 uM incubated for 2 hr by spectrophotometry analysis; format: toxicity, cell-based, Oryctolagus cuniculus
# [7] = tested on: Influenza A virus; test: Antiviral activity against influenza A virus A/WSN/33(H1N1) infected in MDCK cells assessed as reduction in M2 expression measured upto 2 hrs by time of addition assay; format: functional; set-up: scale not given: the % may be the effect or the level left
# [8] = tested on: Erythrocyte; test: Inhibition of hemagglutination in chicken RBC cells infected with Influenza A virus A/WSN/33 (H1N1) assessed as reduction in virus-induced agglutination of erythrocytes at 0.24 to 15 uM incubated for 24 mins; format: functional, cell-based; details: Gallus gallus, dose 0.24-15 µM
# [9] = tested on: Influenza A virus; test: Antiviral activity against influenza A virus B/Sichuan/531/2018 (Victoria) infected in MDCK cells assessed as inhibition of viral growth; format: functional, organism-based
# [10] = Selectivity index, ratio of CC50 for cytotoxicity against dog MDCK cells assessed as reduction in cell viability to IC50 for antiviral activity against influenza A virus B/Sichuan/531/2018 (Victoria) infected in MDCK cells assessed as inhibition of viral growth; format: toxicity, cell-based; details: read-out: Ratio CC50/IC50
# [11] = tested on: Influenza A virus; test: Antiviral activity against influenza A virus B/Darwin/58/2019 (Yamagata) infected in MDCK cells assessed as inhibition of viral growth; format: functional, organism-based
# [12] = Selectivity index, ratio of CC50 for cytotoxicity against dog MDCK cells assessed as reduction in cell viability to IC50 for antiviral activity against influenza A virus B/Darwin/58/2019 (Yamagata) infected in MDCK cells assessed as inhibition of viral growth; format: toxicity, cell-based; details: read-out: Ratio CC50/IC50
# [13] = tested on: Influenza A virus; test: Antiviral activity against influenza A virus A/WSN/33(H1N1) infected in MDCK cells assessed as inhibition of virus-induced cytopathic effect at 30 uM incubated for 48 hrs by microscopic analysis; format: functional, organism-based
# [14] = Binding affinity to influenza A virus H1N1 (A/michigan/45/2015) assessed as dissociation constant by SPR analysis
Compound,"viability at 48 h, 30 µM [1]",Activity [2],IC50 [3],CC50 at 48 h [4],selectivity ratio [5],Activity [6],Activity [7],inhibition [8],IC50 [9],selectivity ratio [10],IC50 [11],selectivity ratio [12],Activity [13],Kd [14]
CC1(C)CC[C@]2(C(=O)NCCOCCn3cc(COc4cc(C(=O)NCCNC(=O)OCCn5cc(COc6cc(OCc7cn(CCOC(=O)NCCNC(=O)c8cc(OCc9cn(CCOCCNC(=O)[C@]%10%11CCC(C)(C)C[C@H]%10C%10=CC[C@@H]%12[C@@]%13(C)CC[C@H](O)C(C)(C)[C@@H]%13CC[C@@]%12(C)[C@]%10(C)CC%11)nn9)c(OCc9cn(CCOCCNC(=O)[C@]%10%11CCC(C)(C)C[C@H]%10C%10=CC[C@@H]%12[C@@]%13(C)CC[C@H](O)C(C)(C)[C@@H]%13CC[C@@]%12(C)[C@]%10(C)CC%11)nn9)c(OCc9cn(CCOCCNC(=O)[C@]%10%11CCC(C)(C)C[C@H]%10C%10=CC[C@@H]%12[C@@]%13(C)CC[C@H](O)C(C)(C)[C@@H]%13CC[C@@]%12(C)[C@]%10(C)CC%11)nn9)c8)nn7)cc(OCc7cn(CCOC(=O)NCCNC(=O)c8cc(OCc9cn(CCOCCNC(=O)[C@]%10%11CCC(C)(C)C[C@H]%10C%10=CC[C@@H]%12[C@@]%13(C)CC[C@H](O)C(C)(C)[C@@H]%13CC[C@@]%12(C)[C@]%10(C)CC%11)nn9)c(OCc9cn(CCOCCNC(=O)[C@]%10%11CCC(C)(C)C[C@H]%10C%10=CC[C@@H]%12[C@@]%13(C)CC[C@H](O)C(C)(C)[C@@H]%13CC[C@@]%12(C)[C@]%10(C)CC%11)nn9)c(OCc9cn(CCOCCNC(=O)[C@]%10%11CCC(C)(C)C[C@H]%10C%10=CC[C@@H]%12[C@@]%13(C)CC[C@H](O)C(C)(C)[C@@H]%13CC[C@@]%12(C)[C@]%10(C)CC%11)nn9)c8)nn7)c6)nn5)cc(OCc5cn(CCOCCNC(=O)[C@]67CCC(C)(C)C[C@H]6C6=CC[C@@H]8[C@@]9(C)CC[C@H](O)C(C)(C)[C@@H]9CC[C@@]8(C)[C@]6(C)CC7)nn5)c4OCc4cn(CCOCCNC(=O)[C@]56CCC(C)(C)C[C@H]5C5=CC[C@@H]7[C@@]8(C)CC[C@H](O)C(C)(C)[C@@H]8CC[C@@]7(C)[C@]5(C)CC6)nn4)nn3)CC[C@]3(C)C(=CC[C@@H]4[C@@]5(C)CC[C@H](O)C(C)(C)[C@@H]5CC[C@]43C)[C@@H]2C1,96.5%,100%,7.93 µM,> 30 µM,> 3.78,Non-Toxic,>90%,Active,27.2 µM,> 1.1,9.38 µM,> 3.2,–,–
CC1(C)CC[C@]2(C(=O)NCCOCCOCCOCCn3cc(COc4cc(C(=O)NCCOCCOCCOCCn5cc(COc6cc(OCc7cn(CCOCCOCCOCCNC(=O)c8cc(OCc9cn(CCOCCOCCOCCNC(=O)[C@]%10%11CCC(C)(C)C[C@H]%10C%10=CC[C@@H]%12[C@@]%13(C)CC[C@H](O)C(C)(C)[C@@H]%13CC[C@@]%12(C)[C@]%10(C)CC%11)nn9)c(OCc9cn(CCOCCOCCOCCNC(=O)[C@]%10%11CCC(C)(C)C[C@H]%10C%10=CC[C@@H]%12[C@@]%13(C)CC[C@H](O)C(C)(C)[C@@H]%13CC[C@@]%12(C)[C@]%10(C)CC%11)nn9)c(OCc9cn(CCOCCOCCOCCNC(=O)[C@]%10%11CCC(C)(C)C[C@H]%10C%10=CC[C@@H]%12[C@@]%13(C)CC[C@H](O)C(C)(C)[C@@H]%13CC[C@@]%12(C)[C@]%10(C)CC%11)nn9)c8)nn7)cc(OCc7cn(CCOCCOCCOCCNC(=O)c8cc(OCc9cn(CCOCCOCCOCCNC(=O)[C@]%10%11CCC(C)(C)C[C@H]%10C%10=CC[C@@H]%12[C@@]%13(C)CC[C@H](O)C(C)(C)[C@@H]%13CC[C@@]%12(C)[C@]%10(C)CC%11)nn9)c(OCc9cn(CCOCCOCCOCCNC(=O)[C@]%10%11CCC(C)(C)C[C@H]%10C%10=CC[C@@H]%12[C@@]%13(C)CC[C@H](O)C(C)(C)[C@@H]%13CC[C@@]%12(C)[C@]%10(C)CC%11)nn9)c(OCc9cn(CCOCCOCCOCCNC(=O)[C@]%10%11CCC(C)(C)C[C@H]%10C%10=CC[C@@H]%12[C@@]%13(C)CC[C@H](O)C(C)(C)[C@@H]%13CC[C@@]%12(C)[C@]%10(C)CC%11)nn9)c8)nn7)c6)nn5)cc(OCc5cn(CCOCCOCCOCCNC(=O)[C@]67CCC(C)(C)C[C@H]6C6=CC[C@@H]8[C@@]9(C)CC[C@H](O)C(C)(C)[C@@H]9CC[C@@]8(C)[C@]6(C)CC7)nn5)c4OCc4cn(CCOCCOCCOCCNC(=O)[C@]56CCC(C)(C)C[C@H]5C5=CC[C@@H]7[C@@]8(C)CC[C@H](O)C(C)(C)[C@@H]8CC[C@@]7(C)[C@]5(C)CC6)nn4)nn3)CC[C@]3(C)C(=CC[C@@H]4[C@@]5(C)CC[C@H](O)C(C)(C)[C@@H]5CC[C@]43C)[C@@H]2C1,100%,76.88%,5.23 µM,> 30 µM,> 5.74,–,>90%,Active,33.5 µM,> 0.9,–,–,Active,12.9 µM
